Laboratory results as given in PubChem BioAssay (NCI).
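GI50 marks 50% less growth. TGI is the concentration that stops growth completely.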

Columns and labels:
Assay in all cases: NCI tumour cell line growth inhibition, 384-well format
[1] = system: MCF7 breast
[2] = system: SN12C renal
[3] = system: UO-31 renal
[4] = system: NCI/ADR-RES ovarian
[5] = system: HCC-2998 colon
[6] = system: SF-539 CNS
[7] = system: HOP-62 NSCLC
[8] = system: MOLT-4 leukemia
[9] = system: LOX IMVI melanoma
[10] = system: UACC-62 melanoma
[11] = system: KM12 colon
[12] = system: T-47D breast
[13] = system: ACHN renal
[14] = system: SNB-19 CNS
[15] = system: MDA-MB-435 melanoma
[16] = system: NCI-H322M lung
[17] = system: OVCAR-5 ovarian
[18] = system: SK-MEL-5 melanoma
[19] = system: M14 melanoma
[20] = system: CAKI-1 renal
[21] = system: NCI-H522 lung
[22] = system: NCI-H23 lung
[23] = system: MDA-MB-468 breast
[24] = system: EKVX NSCLC
[25] = system: HS 578T breast
[26] = system: SK-OV-3 ovarian
[27] = system: BT-549 breast
[28] = system: U251 glioblastoma
[29] = system: HOP-92 NSCLC
[30] = system: RXF 393 renal
[31] = system: SW-620 colon
[32] = system: COLO 205 colon
[33] = system: IGROV1 ovarian
[34] = system: CCRF-CEM leukemia
[35] = system: OVCAR-4 ovarian
[36] = system: SR leukemia
[37] = system: A498 renal
[38] = system: HCT-15 colon
[39] = system: HT29 colon
[40] = system: MDA-MB-231 breast
[41] = system: SF-268 CNS
[42] = system: RPMI-8226 leukemia
[43] = system: HL-60(TB) leukemia
[44] = system: K-562 leukemia
[45] = system: MALME-3M melanoma
[46] = system: SNB-75 CNS
[47] = system: NCI-H226 lung
[48] = system: PC-3 prostate
[49] = system: 786-0 renal
[50] = system: OVCAR-8 ovarian
[51] = system: NCI-H460 NSCLC
[52] = system: DU-145 prostate
[53] = system: A549 NSCLC
[54] = system: SK-MEL-28 melanoma
[55] = system: OVCAR-3 ovarian
[56] = system: UACC-257 melanoma
[57] = system: SF-295 CNS
[58] = system: TK-10 renal

CNc1nc(-c2ccc3c(N)n[nH]c3c2)cc(N2C[C@@H](C(=O)NC3CCCCC3)CC[C@H]2C)n1
GI50 [1]: 0.417 µM | TGI [1]: 2.95 µM | GI50 [2]: 1.9 µM | TGI [2]: 15.5 µM | GI50 [3]: 5.39 µM | TGI [3]: 19.4 µM | GI50 [4]: 13.5 µM | TGI [4]: 26.4 µM | GI50 [5]: 2.73 µM | TGI [5]: 13.9 µM | GI50 [6]: 3.52 µM | TGI [6]: 15.8 µM | GI50 [7]: 7.05 µM | TGI [7]: 20.3 µM | GI50 [8]: 0.545 µM | TGI [8]: 1.9 µM | GI50 [9]: 4.8 µM | TGI [9]: 17.4 µM | GI50 [10]: 1.93 µM | TGI [10]: 13.5 µM | GI50 [11]: 10.1 µM | TGI [11]: 21.8 µM | GI50 [12]: 0.0787 µM | TGI [12]: 1.58 µM | GI50 [13]: 4.99 µM | TGI [13]: 20.8 µM | GI50 [14]: 7.1 µM | TGI [14]: 20 µM | GI50 [15]: 3.29 µM | TGI [15]: 16.9 µM | GI50 [16]: 7.92 µM | TGI [16]: 20.7 µM | GI50 [17]: 1.64 µM | TGI [17]: 6.52 µM | GI50 [18]: 0.798 µM | TGI [18]: 2.81 µM | GI50 [19]: 1.7 µM | TGI [19]: 17.8 µM | GI50 [20]: 1.61 µM | TGI [20]: 15.2 µM | GI50 [21]: 6.52 µM | TGI [21]: 19.9 µM | GI50 [22]: 1.86 µM | TGI [22]: 13.2 µM | GI50 [23]: 0.213 µM | TGI [23]: 0.997 µM | GI50 [24]: 2.17 µM | TGI [24]: 15 µM | GI50 [25]: 1.33 µM | TGI [25]: 6.42 µM | GI50 [26]: 1.68 µM | TGI [26]: 12.1 µM | GI50 [27]: 1.72 µM | TGI [27]: 13.9 µM | GI50 [28]: 10.4 µM | TGI [28]: 22.4 µM | GI50 [29]: 0.99 µM | TGI [29]: 6.78 µM | GI50 [30]: 2.97 µM | TGI [30]: 13 µM | GI50 [31]: 11.6 µM | TGI [31]: 24 µM | GI50 [32]: 1.56 µM | TGI [32]: 11 µM | GI50 [33]: 2.66 µM | TGI [33]: 10.1 µM | GI50 [34]: 1.04 µM | TGI [34]: 3.12 µM | GI50 [35]: 2.58 µM | TGI [35]: 13.3 µM | GI50 [36]: 0.475 µM | TGI [36]: 8.48 µM | GI50 [37]: 0.666 µM | TGI [37]: 7.16 µM | GI50 [38]: 2.81 µM | TGI [38]: 13.9 µM | GI50 [39]: 3.45 µM | TGI [39]: 18 µM | GI50 [40]: 1.91 µM | TGI [40]: 16.7 µM | GI50 [41]: 5.21 µM | TGI [41]: 19.3 µM | GI50 [42]: 0.471 µM | TGI [42]: 3.49 µM | GI50 [43]: 1.26 µM | TGI [43]: 2.85 µM | GI50 [44]: 4.88 µM | TGI [44]: 17.4 µM | GI50 [45]: 0.157 µM | TGI [45]: 2.01 µM | GI50 [46]: 1.19 µM | TGI [46]: 13.4 µM | GI50 [47]: 2.15 µM | TGI [47]: 14 µM | GI50 [48]: 0.877 µM | TGI [48]: 14.7 µM | GI50 [49]: 3.25 µM | TGI [49]: 13.8 µM | GI50 [50]: 9.7 µM | TGI [50]: 21.6 µM | GI50 [51]: 1.6 µM | TGI [51]: 13.9 µM | GI50 [52]: 10.3 µM | TGI [52]: 22.1 µM | GI50 [53]: 3.78 µM | TGI [53]: 16.2 µM | GI50 [54]: 1.54 µM | TGI [54]: 12.5 µM | GI50 [55]: 3.45 µM | TGI [55]: 16.7 µM | GI50 [56]: 1.62 µM | TGI [56]: 10.5 µM | GI50 [57]: 4.81 µM | TGI [57]: 18.3 µM | GI50 [58]: 3.15 µM | TGI [58]: 16.4 µM
